Source: US11578265B2, “AIEgens for cancer cell imaging” (THE HONG KONG UNIVERSITY OF SCIENCE AND TECHNOLOGY, priority 2016, dated 2023)

Tests used:
[1] = UV-vis and photoluminescence properties of 2TPE-4E; assay type: physicochemical
Description: The photophysical properties of 2TPE-4E were investigated by UV-vis (FIG. 7A) and photoluminescence (PL) spectra. […] The high ε means 2TPE-4E could be excited by a weak laser power, which is beneficial for bio-application due to the weak photo-damage and photobleaching.
Although the film of 2TPE-4E looked bright, its quantum yield (QY) was measured to be around 6%, which can probably be ascribed to the high molar extinction coefficient. […] With the water fraction (fw) increasing, 2TPE-4E began to aggregate and gave a highest intensity at a fw of 90% due to the restriction of intramolecular rotation.

[2] = Photophysical properties of CSPP; assay type: physicochemical
Description: Inset: photographs of CSPP in water/iPrOH mixtures with 0% and 99% iPrOH fractions taken under 365 nm UV irradiation; (c) PL spectrum of CSPP in water/glycerol mixtures with different glycerol fractions (fG); and (d) plot of I/I0 at 620 nm versus fG, where I0 was the PL intensity in pure water. Inset: plot of log I against log η, where η was the solution viscosity. Concentration: 10 μM; λex: 400 nm.
The photophysical properties of CSPP were studied. […] However, the emission was enhanced at 640 nm in increments of isopropanol fraction (FIGS. 20a and b), which is a signature of AIE. The free intramolecular motion of a molecularly dissolved state in aqueous solution was in favor of non-radiative decay.
Addition of isopropanol induced the formation of aggregates and restricted the intramolecular motion (RIM), activating the radiative channel. Similarly, intramolecular motion can also be restricted in a highly viscous condition.

[3] = test system: HCC827 cells; experiment: Cell imaging of CSPP and co-staining with MitoTracker Green; assay type: cell-based, human; conditions: 5 μM
Description: The cell imaging of CSPP molecule was also checked (FIG. 23). […] After 8 hours of incubation, more dyes entered and accumulated in the mitochondria of the cells due to targeting of the pyridium group.

[4] = test system: HCC827 cells; experiment: CCK-8 cell viability with CSPP; assay type: cell-based, human; conditions: HCC827, CSPP up to 50 μM, 24 hours
Description: (§1) HCC827 and NCI-H23 cells were seeded for 24 hours and incubated in CSPP of different concentration for 24 hours. Data given are the mean±SD (n=4). Before CSPP was further functionalized for antibody labeling, its biocompatibility was verified by CCK-8 assay (FIG. 22).

[5] = test system: NCI-H23 cells; experiment: CCK-8 cell viability with CSPP; assay type: cell-based; conditions: NCI-H23, CSPP up to 50 μM, 24 hours
Description: as §1

[6] = Water solubility of CSPP; assay type: physicochemical
Excerpt: The design and synthesis of the present subject matter was inspired by the simple design and synthesis of ASCP, which was further modified and the hydrophilicity was improved. To prevent denature of antibodies during conjugation, aqueous solution was used for the reaction. A water-soluble AIEgen having a long wavelength in absorption and emission was required. Piperazine (PZ) was introduced to the structure and served as the electron donating group and hydrophilic group; pyridium (Py) salt was kept as the strong electron withdrawing group and hydrophilic group; and α-Cyanostilbene was the core skeleton for attributing AIE characteristics. As such, a new AIEgen, CSPP, was synthesized by Knoevenagel condensation and Suzuki coupling and the targeted compound was successfully obtained. CSPP carries two positive charges, thus enjoying high water-solubility, and its donor-acceptor structure contributes to a long-wavelength absorption, as well as emission. The synthetic route to CSPP and CSPP—NHS is shown below, with the scheme of synthesis following.

CCN(CC)c1ccc(C(=C(c2ccccc2)c2ccc(C#CC#CC#CC#Cc3ccc(C(=C(c4ccc(N(CC)CC)cc4)c4ccc(N(CC)CC)cc4)c4ccccc4)cc3)cc2)c2ccc(N(CC)CC)cc2)cc1 [2TPE-4E]
maximum absorption [1]: 473 nm
water fraction (fw) giving highest emission intensity ([1]; THF/water mixtures): 90%
emission in dilute THF solution ([1]; dilute THF): very weak emission
molar extinction coefficient (ε) ([1]; dilute THF solution and thin film): about 7×10^4 M^−1 cm^−1
quantum yield (QY) ([1]; film): around 6%
solid emission wavelength ([1]; thin film): 630 nm

C[n+]1ccc(-c2ccc(/C(C#N)=C/c3ccc(N4CC[N+](C)(C)CC4)cc3)cc2)cc1.[I-].[I-] [CSPP, (Z)-4-(4-(2-cyano-2-(4-(1-methylpyridin-1-ium-4-yl)phenyl)vinyl)phenyl)-1,1-dimethylpiperazin-1-ium iodide]
λmax, abs ([2]; Aggregates in 99% isopropanol): 400 nm
λmax, em ([2]; Aggregates in 99% isopropanol): 624 nm
φF ([2]; Aggregates in 99% isopropanol): 5.6%
λmax, abs ([2]; In 95% glycerol): 405 nm
λmax, em ([2]; In 95% glycerol): 610 nm
φF ([2]; In 95% glycerol): 13.7%
λmax, abs ([2]; In water): 395 nm
λmax, em ([2]; In water): 640 nm
φF ([2]; In water): 0.9%
emission in pure water ([2]; pure water): very weak emission
emission from stained cells ([3]; 30 minutes): no emission
emission from stained cells ([3]; 8 hours): mitochondria lit up
Pearson correlation coefficient with MitoTracker Green ([3]; 8 hours, co-staining): 0.80
cell viability [4]: above 90%
cell viability [5]: > 81%
water solubility [6]: water-soluble
